IC50 data for 14 compounds are collected here from US9187450B2, “Substituted pyridine compound” (Daiichi Sankyo Company, Limited, priority 2010, dated 2015).

Sequence of recombinant human CETP protein (P11597 18-493): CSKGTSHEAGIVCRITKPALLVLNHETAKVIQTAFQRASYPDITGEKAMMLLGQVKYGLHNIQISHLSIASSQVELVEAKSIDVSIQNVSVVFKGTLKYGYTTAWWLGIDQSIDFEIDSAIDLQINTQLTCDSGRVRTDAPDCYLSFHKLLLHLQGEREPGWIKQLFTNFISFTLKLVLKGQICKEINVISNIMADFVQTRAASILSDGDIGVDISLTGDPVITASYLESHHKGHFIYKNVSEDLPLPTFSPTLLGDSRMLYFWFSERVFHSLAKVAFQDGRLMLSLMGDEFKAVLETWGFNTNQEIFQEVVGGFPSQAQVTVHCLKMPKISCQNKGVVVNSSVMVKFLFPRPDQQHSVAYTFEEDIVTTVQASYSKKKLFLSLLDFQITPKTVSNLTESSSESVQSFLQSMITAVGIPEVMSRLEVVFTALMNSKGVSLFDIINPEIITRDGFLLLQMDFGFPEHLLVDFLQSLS

This test addresses recombinant human CETP protein (Homo sapiens (Human), UniProt P11597). Nature of the test: Test of CETP inhibition activity (in vitro, buffer-based). In kind it is biochemical. As to conditions: reconstituted HDL with [14C]-labeled cholesteryl ester, acceptor lipoprotein, 37° C. The essentials: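 Reconstituted HDL carrying [14C]-cholesteryl ester served as donor and plasma IDL/LDL (density 1.019–1.063) as acceptor, with 4.5 ng recombinant CETP in PBS pH 7.4. Compound (DMSO stocks 0.15–500 μM) was preincubated with CETP and acceptor for 60 min at 37 °C, then reacted with donor for 60 min. HDL-fraction radioactivity after MgCl2/dextran sulfate precipitation gave % inhibition and IC50.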
In general, IC50 refers to the concentration that gives 50% inhibition. `CC(C)CCOc1cnc(N2CCC(c3nc4c(c(C5CCC(F)(F)CC5)c3[C@@H](F)c3ccc(C(F)(F)F)cc3)[C@@H](O)CC(C)(C)C4)CC2)nc1` (single isomer, unassigned) [Example 22, (−)-4-(4,4-difluorocyclohexyl)-3-{fluoro[4-(trifluoromethyl)phenyl]methyl}-7,7-dimethyl-2-{1-[5-(3-methylbutoxyl)pyrimidine-2-yl]piperidin-4-yl}-5,6,7,8-tetrahydroquinoline-5-ol]: the IC50 was determined as 111 nM.
The result for `CN(Cc1cnc(N2CCC(c3nc4c(c(C5CCC(F)(F)CC5)c3[C@@H](F)c3ccc(C(F)(F)F)cc3)[C@@H](O)CC(C)(C)C4)CC2)nc1)S(C)(=O)=O` (single isomer, unassigned) [Example 51, (−)-4-(4,4-Difluorocyclohexyl)-3-{fluoro[4-(trifluoromethyl)phenyl]methyl}-7,7-dimethyl-2-[1-(5-{[methyl(methylsulphonyl)amino]methyl}pyrimidin-2-yl)piperidin-4-yl]-5,6,7,8-tetrahydroquinolin-5-ol] reads 6 nM; that for `CC1(C)Cc2nc(C3CCN(c4ncc(OC[C@H](O)CO)cn4)CC3)c([C@@H](F)c3ccc(C(F)(F)F)cc3)c(C3CCC(F)(F)CC3)c2[C@@H](O)C1` (single isomer, unassigned) [Example 40], 11 nM.
The result for `CC1(C)Cc2nc(C3CCN(c4ncc(C5=CCCCC5)cn4)CC3)c([C@@H](F)c3ccc(C(F)(F)F)cc3)c(C3CCC(F)(F)CC3)c2[C@@H](O)C1` (single isomer, unassigned) [Example 18, (−)-2-{1-[5-(Cyclohex-1-ene-1-yl)pyrimidin-2-yl]piperidin-4-yl}-4-(4,4-difluorocyclohexyl)-3-{fluoro[4-(trifluoromethyl)phenyl]methyl}-7,7-dimethyl-5,6,7,8-tetrahydroquinolin-5-ol] reads 177 nM.
As for `CC(C)Cc1cnc(N2CCC(c3nc4c(c(C5CCC(F)(F)CC5)c3[C@@H](F)c3ccc(C(F)(F)F)cc3)[C@@H](O)CC(C)(C)C4)CC2)nc1` (single isomer, unassigned) [Example 24, (−)-4-(4,4-Difluorocyclohexyl)-3-{fluoro[4-(trifluoromethyl)phenyl]methyl}-7,7-dimethyl-2-{1-[5-(2-methylpropyl)pyrimidin-2-yl]piperidin-4-yl}-5,6,7,8-tetrahydroquinolin-5-ol], the 50% inhibitory concentration (IC50) was found to be 54 nM.
Then `CC1(C)Cc2nc(C3CCN(c4ncc(CO)cn4)CC3)c([C@@H](F)c3ccc(C(F)(F)F)cc3)c(C3CCC(F)(F)CC3)c2[C@@H](O)C1` [Example 20, (−)-4-(4,4-Difluorocyclohexyl)-3-{fluoro[4-(trifluoromethyl)phenyl]methyl}-2-[1-[5-(hydroxymethyl)pyrimidin-2-yl]piperidin-4-yl]-7,7-dimethyl-5,6,7,8-tetrahydroquinolin-5-ol], with 255 nM; and `CC1(C)Cc2nc(C3CCN(c4ncc(OC(F)F)cn4)CC3)c([C@@H](F)c3ccc(C(F)(F)F)cc3)c(C3CCC(F)(F)CC3)c2[C@@H](O)C1` (single isomer, unassigned) [Example 48, (−)-4-(4,4-Difluorocyclohexyl)-2-{1-[5-(difluoromethoxy)pyrimidin-2-yl]piperidin-4-yl}-3-{fluoro[4-(trifluoromethyl)phenyl]methyl}-7,7-dimethyl-5,6,7,8-tetrahydroquinolin-5-ol], with 42 nM.
Turning to `CN1CCC(Oc2cnc(N3CCC(c4nc5c(c(C6CCC(F)(F)CC6)c4[C@@H](F)c4ccc(C(F)(F)F)cc4)[C@@H](O)CC(C)(C)C5)CC3)nc2)CC1` (single isomer, unassigned) [Example 38, 4-(4,4-Difluorocyclohexyl)-3-{fluoro[4-(trifluoromethyl)phenyl]methyl}-7,7-dimethyl-2-(1-{5-[(1-methylpiperidin-4-yl)oxy]pyrimidin-2-yl}piperidin-4-yl)-5,6,7,8-tetrahydroquinolin-5-ol], the concentration for half-maximal inhibition (IC50) is 10 nM.
`CC1(C)Cc2nc(C3CCN(c4ncc(CCCCC(=O)O)cn4)CC3)c([C@@H](F)c3ccc(C(F)(F)F)cc3)c(C3CCC(F)(F)CC3)c2[C@@H](O)C1` (single isomer, unassigned) [Example 25, (−)-2-{1-[5-(4-carboxybutyl)pyrimidine-2-yl]piperidin-4-yl}-4-(4,4-difluorocyclohexyl)-3-{fluoro[4-(trifluoromethyl)phenyl]methyl}-7,7-dimethyl-5,6,7,8-tetrahydroquinoline-5-ol]: the IC50 is 19 nM.
Then `CC1(C)Cc2nc(C3CCN(c4ncc(OCCC(F)(F)F)cn4)CC3)c([C@@H](F)c3ccc(C(F)(F)F)cc3)c(C3CCC(F)(F)CC3)c2[C@@H](O)C1` (single isomer, unassigned) [Example 47, (−)-4-(4,4-Difluorocyclohexyl)-3-{fluoro[4-(trifluoromethyl)phenyl]methyl}-7,7-dimethyl-2-{1-[5-(3,3,3-trifluoropropoxyl)pyrimidin-2-yl]piperidin-4-yl}-5,6,7,8-tetrahydroquinolin-5-ol], with 31 nM.
The result for `CC1(C)Cc2nc(C3CCN(c4ncc(S(C)(=O)=O)cn4)CC3)c([C@@H](F)c3ccc(C(F)(F)F)cc3)c(C3CCC(F)(F)CC3)c2[C@@H](O)C1` (single isomer, unassigned) [Example 54, (−)-4-(4,4-Difluorocyclohexyl)-3-{fluoro[4-(trifluoromethyl)phenyl]methyl}-7,7-dimethyl-2-{1-[5-(methylsulphonyl)pyrimidin-2-yl]piperidin-4-yl}-5,6,7,8-tetrahydroquinolin-5-ol] reads 32 nM.
`CNC(=O)c1cnc(N2CCC(c3nc4c(c(C5CCC(F)(F)CC5)c3[C@@H](F)c3ccc(C(F)(F)F)cc3)[C@@H](O)CC(C)(C)C4)CC2)nc1` (single isomer, unassigned) [Example 30, 4-(4,4-Difluorocyclohexyl)-3-{fluoro[4-(trifluoromethyl)phenyl]methyl}-7,7-dimethyl-2-{1-[5-(methylcarbamoyl)pyrimidin-2-yl]piperidin-4-yl}-5,6,7,8-tetrahydroquinolin-5-ol]: the half-maximal inhibitory concentration (IC50) was 32 nM.
Then `CC1(C)Cc2nc(C3CCN(c4ncc(OCCCS(C)(=O)=O)cn4)CC3)c([C@@H](F)c3ccc(C(F)(F)F)cc3)c(C3CCC(F)(F)CC3)c2[C@@H](O)C1` (single isomer, unassigned) [Example 45, (−)-4-(4,4-Difluorocyclohexyl)-3-{fluoro[4-(trifluoromethyl)phenyl]methyl}-7,7-dimethyl-2-(1-{5-[3-(methylsulphonyl)propoxy]pyrimidin-2-yl}piperidin-4-yl)-5,6,7,8-tetrahydroquinolin-5-ol], with 13 nM; and `COc1cnc(N2CCC(c3nc4c(c(C5CCC(F)(F)CC5)c3[C@@H](F)c3ccc(C(F)(F)F)cc3)[C@@H](O)CC(C)(C)C4)CC2)nc1` (single isomer, unassigned) [Example 3, (−)-4-(4,4-Difluorocyclohexyl)-3-{fluoro[4-(trifluoromethyl)phenyl]methyl}-2-[1-(5-methoxypyrimidin-2-yl)piperidin-4-yl]-7,7-dimethyl-5,6,7,8-tetrahydroquinolin-5-ol], with 51 nM.
